Tested on: MAPK phosphorylation in PANC-1 pancreatic cancer cell line
Test: MAPK cell-based phosphorylation assay (cell-direct ELISA, EGF stimulation)
Settings: Homo sapiens
Experimental: Cell lines: Tumor-derived pancreatic cancer cell lines PANC-1 were purchased from ATCC and were maintained according to ATCC recommendation.
Method: Cells were plated at 7500 cells/well density in 96-wells plate, starved over night, and the small molecules to be tested were added to the cells in the final concentration of 30 μM with 0.3% DMSO for 6 hours incubation at 37° C. For IC50 value determination, serial dilutions of compounds were added to cells under the same conditions. Next, cells were stimulated with 1.5 ng/ml EGF for 15 min. followed by cell fixation with 4% Formaldehyde in PBS at RT for 20 min. Phosphorylation level of MAPK was determined by Cell-direct ELISA.
Cell-direct ELISA: For each well, cells were permeabilized with PBS-Triton 0.1%, quenched with H2O2 0.6% in PBS-Triton 0.1%, and probed with anti-phospho-MAPK antibodies (R&D Systems) followed by HRP-conjugated secondary antibody (Jackson Immunoresearch, West Grove, Pa.). Next, a solution 50 μM of the fluorescent substrate AmpliFlu Red (Sigma) was added and incubated at RT for 20 min. At the end of the incubation time, fluorescence was measured at 595 nm on a microplate reader (AF2200; Eppendorf, Inc., Hamburg, Germany).

Compound | IC50
N#Cc1ncn(-c2nc(-c3ccccn3)nc3sc(-c4ccccc4)cc23)n1 [drawing 1083] | 2 to 10 µM
O=C(CN1CCN(c2nc(-c3ccccn3)nc3sc(-c4ccccc4)cc23)CC1)N1CCCC1 [drawing 1091] | 2 to 10 µM
COc1ccnc(-c2nc(O)c3ccsc3n2)c1 [drawing 1114] | > 30 µM
COc1cccc(N2CCN(C(=O)c3csc4c(O)nc(-c5ccccn5)nc34)CC2)c1 [drawing 1118] | > 30 µM
Cc1ccccc1N1CCN(C(=O)c2csc3c(O)nc(-c4ccccn4)nc23)CC1 [drawing 1123] | > 30 µM
O=C(c1csc2c(O)nc(-c3ccccn3)nc12)N1CCN(Cc2cccc(O)c2)CC1 [drawing 1125] | > 30 µM
O=C(c1csc2c(O)nc(-c3ccccn3)nc12)N1CCOC(c2cccc(F)c2)C1 (centres unmarked) [drawing 1128] | > 30 µM
O=C(c1csc2c(O)nc(-c3ccccn3)nc12)N1CCOC(c2nccs2)C1 (centres unmarked) [drawing 1129] | > 30 µM
COc1ccnc(-c2nc(O)c3c(Br)csc3n2)c1 [drawing 1133] | 2 to 10 µM

Same assay, conditions: Homo sapiens, at 30 μM

Compound | inhibition at 30 µM
N#Cc1ncn(-c2nc(-c3ccccn3)nc3sc(-c4ccccc4)cc23)n1 [drawing 1083] | 76 to 100%
Cc1nnc(C(Nc2nc(-c3ccccn3)nc3scc(-c4ccccc4)c23)c2ccccc2)n1C (centres unmarked) [drawing 1084] | 51 to 75%
Cc1sc2nc(-c3ccccn3)nc(NCCc3nccn3C)c2c1-c1ccccc1 [drawing 1085] | 1 to 25%
CCCNC(=O)CN1CCN(c2nc(-c3ccccn3)nc3sc(-c4ccccc4)cc23)CC1 [drawing 1086] | 76 to 100%
c1ccc(-c2csc3nc(-c4ccccn4)nc(N4CCN(Cc5cccnc5)CC4)c23)cc1 [drawing 1087] | 1 to 25%
c1ccc(-c2csc3nc(-c4ccccn4)nc(N4CCN(CC5CCCO5)CC4)c23)cc1 (centres unmarked) [drawing 1088] | 1 to 25%
CN(Cc1cnn(C)c1)c1nc(-c2ccccn2)nc2scc(-c3ccccc3)c12 [drawing 1089] | 25 to 50%
CN(CCCc1n[nH]c(N)c1C#N)c1nc(-c2ccccn2)nc2sc(-c3ccccc3)cc12 [drawing 1090] | 25 to 50%
O=C(CN1CCN(c2nc(-c3ccccn3)nc3sc(-c4ccccc4)cc23)CC1)N1CCCC1 [drawing 1091] | 76 to 100%
CNC(=O)CN1CCN(c2nc(-c3ccccn3)nc3scc(-c4ccccc4)c23)CC1 [drawing 1092] | 1 to 25%
O=S1(=O)CCC(N2CCN(c3nc(-c4ccccn4)nc4scc(-c5ccccc5)c34)CC2)C1 (centres unmarked) [drawing 1093] | 1 to 25%
CN(CC(=O)N1CCOCC1)c1nc(-c2ccccn2)nc2scc(-c3ccccc3)c12 [drawing 1094] | 1 to 25%
CON(C)c1nc(-c2ccccn2)nc2scc(-c3ccccc3)c12 [drawing 1095] | 25 to 50%
O=C(CN1CCN(c2nc(-c3ccccn3)nc3scc(-c4ccccc4)c23)CC1)N1CCCCC1 [drawing 1096] | 25 to 50%
O=C(CNc1nc(-c2ccccn2)nc2scc(-c3ccccc3)c12)NC1CC1 [drawing 1097] | 25 to 50%
CCN(CC)C(=O)CN1CCN(c2nc(-c3ccccn3)nc3scc(-c4ccccc4)c23)CC1 [drawing 1098] | 25 to 50%
CC(C)CNC(=O)CN1CCN(c2nc(-c3ccccn3)nc3scc(-c4ccccc4)c23)CC1 [drawing 1099] | 1 to 25%
O=S1(=O)CCC(Nc2nc(-c3ccccn3)nc3scc(-c4ccccc4)c23)C1 (centres unmarked) [drawing 1100] | 1 to 25%
c1ccc(-c2csc3nc(-c4ccccn4)nc(N4CCN(CCN5CCCC5)CC4)c23)cc1 [drawing 1101] | 76 to 100%

Compound | inhibition at 30 µM
OC1CCCN(c2nc(-c3ccccn3)nc3scc(-c4ccccc4)c23)C1 (centres unmarked) [drawing 1102] | 51 to 75%
OC1CCN(c2nc(-c3ccccn3)nc3scc(-c4ccccc4)c23)CC1 [drawing 1103] | 1 to 25%
O=C(CN1CCN(c2nc(-c3ccccn3)nc3scc(-c4ccccc4)c23)CC1)N1CCCC1 [drawing 1104] | 1 to 25%
O=C(C1CCN(c2nc(-c3ccccn3)nc3scc(-c4ccccc4)c23)CC1)N1CCCCC1 [drawing 1105] | 1 to 25%
c1ccc(-c2csc3nc(-c4ccccn4)nc(NN4CCOCC4)c23)cc1 [drawing 1106] | 1 to 25%
NC(=O)C1CCCN(c2nc(-c3ccccn3)nc3scc(-c4ccccc4)c23)C1 (centres unmarked) [drawing 1107] | 1 to 25%
COCCNc1nc(-c2ccccn2)nc2scc(-c3ccccc3)c12 [drawing 1108] | 76 to 100%
CC(=O)N1CCN(c2nc(-c3ccccn3)nc3scc(-c4ccccc4)c23)CC1 [drawing 1109] | 25 to 50%
O=C1CCN(c2nc(-c3ccccn3)nc3scc(-c4ccccc4)c23)CC1 [drawing 1110] | 25 to 50%
NC(=O)C1CCN(c2nc(-c3ccccn3)nc3scc(-c4ccccc4)c23)CC1 [drawing 1111] | 1 to 25%
Nc1nc(O)c2nc[nH]c2n1 [drawing 1112] | 1 to 25%
Clc1csc2nc(-c3ccccn3)nc(N3CCOCC3)c12 [drawing 1113] | 1 to 25%
COc1ccnc(-c2nc(O)c3ccsc3n2)c1 [drawing 1114] | 51 to 75%
COCCC(C)Nc1nc(-c2ccccn2)nc2sccc12 (centres unmarked) [drawing 1115] | 25 to 50%
Oc1nc(-c2ccccn2)nc2c(C3CCNCC3)csc12 [drawing 1116] | 1 to 25%
COc1ccccc1N1CCN(C(=O)c2csc3c(O)nc(-c4ccccn4)nc23)CC1 [drawing 1117] | 1 to 25%
COc1cccc(N2CCN(C(=O)c3csc4c(O)nc(-c5ccccn5)nc34)CC2)c1 [drawing 1118] | 76 to 100%
O=C(c1csc2c(O)nc(-c3ccccn3)nc12)N1CCN(c2ccccc2Cl)CC1 [drawing 1119] | 1 to 25%
O=C(c1csc2c(O)nc(-c3ccccn3)nc12)N1CCN(c2cccc(Cl)c2)CC1 [drawing 1120] | 25 to 50%

Compound | inhibition at 30 µM
O=C(c1csc2c(O)nc(-c3ccccn3)nc12)N1CCN(c2ccccc2F)CC1 [drawing 1121] | 1 to 25%
N#Cc1ccccc1N1CCN(C(=O)c2csc3c(O)nc(-c4ccccn4)nc23)CC1 [drawing 1122] | 1 to 25%
Cc1ccccc1N1CCN(C(=O)c2csc3c(O)nc(-c4ccccn4)nc23)CC1 [drawing 1123] | 25 to 50%
COc1ccc(CN2CCN(C(=O)c3csc4c(O)nc(-c5ccccn5)nc34)CC2)cc1 [drawing 1124] | 1 to 25%
O=C(c1csc2c(O)nc(-c3ccccn3)nc12)N1CCN(Cc2cccc(O)c2)CC1 [drawing 1125] | 51 to 75%
COc1cccc(C2CN(C(=O)c3csc4c(O)nc(-c5ccccn5)nc34)CCO2)c1 (centres unmarked) [drawing 1126] | 1 to 25%
O=C(c1csc2c(O)nc(-c3ccccn3)nc12)N1CCOC(c2ccc(Cl)cc2)C1 (centres unmarked) [drawing 1127] | 1 to 25%
O=C(c1csc2c(O)nc(-c3ccccn3)nc12)N1CCOC(c2cccc(F)c2)C1 (centres unmarked) [drawing 1128] | 1 to 25%
O=C(c1csc2c(O)nc(-c3ccccn3)nc12)N1CCOC(c2nccs2)C1 (centres unmarked) [drawing 1129] | 25 to 50%
O=C(c1csc2c(O)nc(-c3ccccn3)nc12)N1CCNC(c2cccc(F)c2)C1 (centres unmarked) [drawing 1130] | 1 to 25%
COCCCCNC(=O)c1csc2nc(-c3ccccn3)nc(N3CCN(C)CC3)c12 [drawing 1131] | 1 to 25%
FC(F)(F)c1csc2nc(-c3ccccn3)nc(N3CCOCC3)c12 [drawing 1132] | 1 to 25%
COc1ccnc(-c2nc(O)c3c(Br)csc3n2)c1 [drawing 1133] | 76 to 100%
O=C(c1csc2c(O)nc(-c3ccccn3)nc12)N1CCOC(c2ccc(F)cc2)C1 (centres unmarked) [drawing 1134] | 1 to 25%
CC(C)(C(=O)Nc1ccnc(-c2ccccn2)n1)c1ccc(C#N)cc1 [drawing 1135] | 25 to 50%
CC(C)(C(=O)Nc1nc(-c2ccccn2)nc2sccc12)c1ccc(C#N)cc1 [drawing 1136] | 1 to 25%
O=C(c1csc2c(O)nc(-c3ccccn3)nc12)N1CCN(c2cccc(F)c2)CC1 [drawing 1137] | 1 to 25%
O=C(c1csc2c(O)nc(-c3ccccn3)nc12)N1CCN(c2ccc(F)cc2)CC1 [drawing 1138] | 1 to 25%

— US10940139B2, “Compounds that interact with the Ras superfamily for the treatment of cancers, inflammatory diseases, rasopathies, and fibrotic disease” (Shy Therapeutics LLC, priority 2017, dated 2021)
